This passage reports IC50 results from publication doi:10.1101/2024.02.23.581731v1 (biorxiv, 2024).

What all share (test): FLIPR Blue membrane potential assay, inhibition of 5-HT response
Holding throughout (format): cell-based

For test [1], the target named is T1, h5-HT3AR (Homo sapiens, UniProt P46098, Y228S).
T1 sequence (P46098 24-478 Y228S): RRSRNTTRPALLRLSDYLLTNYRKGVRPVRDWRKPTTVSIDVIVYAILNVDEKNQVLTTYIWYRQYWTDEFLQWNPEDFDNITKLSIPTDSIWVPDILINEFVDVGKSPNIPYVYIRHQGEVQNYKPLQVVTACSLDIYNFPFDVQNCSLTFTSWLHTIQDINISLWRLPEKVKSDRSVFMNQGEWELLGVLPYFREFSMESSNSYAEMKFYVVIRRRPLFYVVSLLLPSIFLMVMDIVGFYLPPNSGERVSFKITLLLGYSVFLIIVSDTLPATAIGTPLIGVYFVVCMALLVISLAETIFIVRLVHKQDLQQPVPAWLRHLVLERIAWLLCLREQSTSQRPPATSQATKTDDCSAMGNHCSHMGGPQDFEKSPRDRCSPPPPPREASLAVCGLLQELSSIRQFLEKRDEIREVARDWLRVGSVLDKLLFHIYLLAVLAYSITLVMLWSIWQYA

A further test concerns the target T2, r5-HT3AR (Rattus norvegicus, UniProt P35563).
T2 sequence (P35563 24-483): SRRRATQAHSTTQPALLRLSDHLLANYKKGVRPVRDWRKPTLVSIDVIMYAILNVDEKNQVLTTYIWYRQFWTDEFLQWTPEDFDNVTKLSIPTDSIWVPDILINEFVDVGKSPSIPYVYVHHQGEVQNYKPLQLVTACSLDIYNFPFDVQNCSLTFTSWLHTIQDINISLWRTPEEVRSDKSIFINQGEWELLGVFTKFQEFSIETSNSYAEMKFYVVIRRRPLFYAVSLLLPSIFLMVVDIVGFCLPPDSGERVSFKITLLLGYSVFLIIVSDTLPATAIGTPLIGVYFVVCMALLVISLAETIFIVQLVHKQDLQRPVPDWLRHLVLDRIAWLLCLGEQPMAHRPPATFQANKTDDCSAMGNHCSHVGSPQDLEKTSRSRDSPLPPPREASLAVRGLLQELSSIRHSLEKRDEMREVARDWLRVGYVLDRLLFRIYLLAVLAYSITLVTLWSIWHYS

Test [2] deals with T3, h5-HT3AR (Homo sapiens, UniProt P46098, M204I).
T3 sequence (P46098 24-478 M204I): T1 sequence (P46098 24-478 Y228S) with M181I, S205Y

The target of test [3] is T4, h5-HT3AR (Homo sapiens, UniProt P46098, R200K).
T4 sequence (P46098 24-478 R200K): T1 sequence (P46098 24-478 Y228S) with R177K, S205Y

Test [4] addresses T5, h5-HT3AR (Homo sapiens, UniProt P46098, V202I).
T5 sequence (P46098 24-478 V202I): T1 sequence (P46098 24-478 Y228S) with V179I, S205Y

Test [5] addresses T6, h5-HT3AR (Homo sapiens, UniProt P46098, M223D).
T6 sequence (P46098 24-478 M223D): T1 sequence (P46098 24-478 Y228S) with M200D, S205Y

Substitutions are numbered along the chain they refer to.

A word on the IC50: it is the concentration at which inhibition is half-maximal. Read a low IC50 as greater potency.

With `Cc1ccc(Sc2ccccc2N2CCNCC2)c(C)c1` [vortioxetine], the 50% inhibitory concentration (IC50) on h5-HT3AR [1] is 0.084 µM; at r5-HT3AR, 0.026 µM; against h5-HT3AR [2], 0.073 µM; on h5-HT3AR [3], 0.094 µM; at h5-HT3AR [4] it was 0.037 µM; at h5-HT3AR [5] it was 0.375 µM.
